ChEMBL document CHEMBL1212763, “Pharmacokinetics and safety of S/GSK1349572, a next-generation HIV integrase inhibitor, in healthy volunteers” (Antimicrob Agents Chemother, 2010)

How the values were obtained:
Type in all cases: ADME, organism-based
[1] = Cmax in healthy human at 5 mg administered as single dose suspension; design: dose 5 mg; conditions: in vivo
[2] = Cmax in healthy human at 10 mg administered as single dose suspension; design: dose 10 mg; conditions: in vivo
[3] = Cmax in healthy human at 25 mg administered as single dose suspension; design: dose 25 mg; conditions: in vivo
[4] = Cmax in healthy human at 50 mg administered as single dose suspension; design: dose 50 mg; conditions: in vivo
[5] = Cmax in healthy human at 100 mg administered as single dose suspension; design: dose 100 mg; conditions: in vivo
[6] = Tmax in healthy human at 2 mg administered as single dose suspension; conditions: in vivo
[7] = Tmax in healthy human at 5 mg administered as single dose suspension; conditions: in vivo
[8] = Tmax in healthy human at 10 mg administered as single dose suspension; conditions: in vivo
[9] = Tmax in healthy human at 25 mg administered as single dose suspension; conditions: in vivo
[10] = Tmax in healthy human at 50 mg administered as single dose suspension; conditions: in vivo
[11] = Tmax in healthy human at 100 mg administered as single dose suspension; conditions: in vivo
[12] = AUC (0-t) in healthy human at 2 mg administered as single dose suspension; conditions: plasma
[13] = AUC (0-t) in healthy human at 5 mg administered as single dose suspension; conditions: plasma
[14] = AUC (0-t) in healthy human at 10 mg administered as single dose suspension; conditions: plasma
[15] = AUC (0-t) in healthy human at 25 mg administered as single dose suspension; conditions: plasma
[16] = AUC (0-t) in healthy human at 50 mg administered as single dose suspension; conditions: plasma
[17] = AUC (0-t) in healthy human at 100 mg administered as single dose suspension; conditions: plasma
[18] = AUC (0-infinity) in healthy human at 2 mg administered as single dose suspension; design: dose 2 mg, time infinity; conditions: plasma
[19] = AUC (0-infinity) in healthy human at 5 mg administered as single dose suspension; design: dose 5 mg, time infinity; conditions: plasma
[20] = AUC (0-infinity) in healthy human at 10 mg administered as single dose suspension; design: dose 10 mg, time infinity; conditions: plasma
[21] = AUC (0-infinity) in healthy human at 25 mg administered as single dose suspension; design: dose 25 mg, time infinity; conditions: plasma
[22] = AUC (0-infinity) in healthy human at 50 mg administered as single dose suspension; design: dose 50 mg, time infinity; conditions: plasma
[23] = AUC (0-infinity) in healthy human at 100 mg administered as single dose suspension; design: dose 100 mg, time infinity; conditions: plasma
[24] = Apparent oral clearance in healthy human at 2 mg administered as single dose suspension; conditions: in vivo
[25] = Apparent oral clearance in healthy human at 5 mg administered as single dose suspension; conditions: in vivo
[26] = Apparent oral clearance in healthy human at 10 mg administered as single dose suspension; conditions: in vivo
[27] = Apparent oral clearance in healthy human at 25 mg administered as single dose suspension; conditions: in vivo
[28] = Apparent oral clearance in healthy human at 50 mg administered as single dose suspension; conditions: in vivo
[29] = Apparent oral clearance in healthy human at 100 mg administered as single dose suspension; conditions: in vivo
[30] = Half life in healthy human at 2 mg administered as single dose suspension; conditions: in vivo
[31] = Half life in healthy human at 5 mg administered as single dose suspension; conditions: in vivo
[32] = Half life in healthy human at 10 mg administered as single dose suspension; conditions: in vivo
[33] = Half life in healthy human at 25 mg administered as single dose suspension; conditions: in vivo
[34] = Half life in healthy human at 50 mg administered as single dose suspension; conditions: in vivo
[35] = Half life in healthy human at 100 mg administered as single dose suspension; conditions: in vivo
[36] = Drug level at 24 hrs in healthy human at 2 mg administered as single dose suspension; conditions: in vivo, read-out: Drug uptake
[37] = Drug level at 24 hrs in healthy human at 5 mg administered as single dose suspension; conditions: in vivo, read-out: Drug uptake

Work on `C[C@@H]1CCO[C@H]2Cn3cc(C(=O)NCc4ccc(F)cc4F)c(=O)c([O-])c3C(=O)N12.[Na+]` [DOLUTEGRAVIR SODIUM] yielded a Cmax [1] of 661 ng/mL, a Cmax [2] of 1230 ng/mL and a Cmax [3] of 2760 ng/mL. For the same molecule, the Cmax [4] was 4560 ng/mL, the Cmax [5] was 8140 ng/mL and the Tmax [6] was 0.63 h. It also gave a Tmax [7] of 0.5 h, a Tmax [8] of 0.63 h and a Tmax [9] of 0.75 h. The Tmax [10] was 1.25 h, the Tmax [11] was 1 h and the AUC(0-t) [12] was 2630 ng·h/mL. For the same molecule, the AUC(0-t) [13] was 8540 ng·h/mL, the AUC(0-t) [14] was 14300 ng·h/mL and the AUC(0-t) [15] was 34300 ng·h/mL. It also gave an AUC(0-t) [16] of 70800 ng·h/mL, an AUC(0-t) [17] of 131000 ng·h/mL and an AUC(0-inf) [18] of 2780 ng·h/mL. The AUC(0-inf) [19] was 8870 ng·h/mL, the AUC(0-inf) [20] was 14600 ng·h/mL and the AUC(0-inf) [21] was 35100 ng·h/mL. The AUC(0-inf) [22] was 73200 ng·h/mL, the AUC(0-inf) [23] was 136000 ng·h/mL and the CL/F [24] was 12 mL/min. For the same molecule, the CL/F [25] was 9.33 mL/min, the CL/F [26] was 11.5 mL/min and the CL/F [27] was 11.8 mL/min. For the same molecule, the CL/F [28] was 11.3 mL/min, the CL/F [29] was 12.3 mL/min and the half-life [30] was 12.7 h. It also gave a half-life [31] of 14.3 h, a half-life [32] of 12.7 h and a half-life [33] of 12.7 h. The half-life [34] was 14.2 h, the half-life [35] was 14.7 h and the concentration at 24 h [36] was 38.2 ng/mL. For the same molecule, the concentration at 24 h [37] was 126 ng/mL.
